# Reference: patent publication US20240424113A1, “CONJUGATES COMPRISING ANTIFUNGALS AND HEAT SHOCK PROTEIN 90 (HSP90) INHIBITORS AND METHODS OF USE THEREOF” (Bright Angel Therapeutics Inc., priority 2021, published 2024)
# Columns and labels:
# [1] = target: Hsp90 Nuclear Binding Domain (NBD) (Candida albicans (strain SC5314 / ATCC MYA-2876) (Yeast), UniProt P46598); assay: Surface Plasmon Resonance (SPR) binding, C. albicans Hsp90 NBD; details: biotinylated Hsp90 NBD on streptavidin chip, 25° C., 1:1 binding model
# Method: (§1) Surface Plasmon Resonance (SPR) Experiments. SPR experiments were performed on a Biacore S200 instrument at 25° C. Biotinylated Hsp90 Nuclear Binding Domain (NBD) was diluted to 40 μg/mL and immobilized on a streptavidin chip (Sensor Chip SA, GE Healthcare) at a density of 2000-2500 response units (RU) on the biosensor surface.
# (§2) Recombinant Hsp90 NBDs were expressed and purified as previously described (Whitesell et al., Nat Commun 10, 402 (2019)) with the following modification; Hsp90 NBD expression constructs were modified to encode a C-terminal AviTag for site-specific on-column biotinylation with a BirA biotin-ligase kit (Avidity LLC; BirA-500). Stock protein solutions in 50% glycerol were stored at −20° C. until dilution into relevant buffers. Binding experiments were done in HBS-P (0.01 M HEPES, pH 7.4, 0.15 M NaCl, 0.005% v/v surfactant P20, GE Healthcare) with 2% DMSO at flow rate of 40 μL/min. Test compounds (dilution series) were injected with a 60 s association time and 600 s dissociation time. Resulting sensorgrams were analyzed with a fit to a 1:1 binding model, using BIA evaluation software.
# [2] = target: Hsp90 Nuclear Binding Domain (NBD) (Aspergillus fumigatus, UniProt P40292); assay: Surface Plasmon Resonance (SPR) binding, A. fumigatus Hsp90 NBD; details: biotinylated Hsp90 NBD on streptavidin chip, 25° C., 1:1 binding model; NB undefined
# Method: as §1, §2
# CaCl2 = assay: Antifungal sensitivity testing (broth microdilution MIC); type: cell-based; details: Table 4; 96-well broth microdilution
# Method: Antifungal Sensitivity Testing. Minimum inhibitory concentrations (MICs) were determined in flat bottom, 96-well plate format using a modified broth microdilution protocol as previously described (Singh et al., PLoS Pathog. 5, e1000532 (2009); LaFayette et al., PLoS Pathog. 6, 79-80 (2010)). Compounds were formulated in dimethyl sulfoxide (DMSO, Sigma-Aldrich Co.); fluconazole was dissolved in sterile ddH2O. Each compound was tested in duplicate in at least two independent experiments. To test for fungicidal activity, cultures from MIC plates were spotted on YPD agar plates using a spotter (Frogger, V&P Scientific, Inc.). Plates were photographed after 24 h of incubation at 30° C.
# Hsp90 Nuclear Binding Domain (NBD) (Aspergillus fumigatus, UniProt P40292), sequence (P40292 whole entry, looked up, the tested form may be a part): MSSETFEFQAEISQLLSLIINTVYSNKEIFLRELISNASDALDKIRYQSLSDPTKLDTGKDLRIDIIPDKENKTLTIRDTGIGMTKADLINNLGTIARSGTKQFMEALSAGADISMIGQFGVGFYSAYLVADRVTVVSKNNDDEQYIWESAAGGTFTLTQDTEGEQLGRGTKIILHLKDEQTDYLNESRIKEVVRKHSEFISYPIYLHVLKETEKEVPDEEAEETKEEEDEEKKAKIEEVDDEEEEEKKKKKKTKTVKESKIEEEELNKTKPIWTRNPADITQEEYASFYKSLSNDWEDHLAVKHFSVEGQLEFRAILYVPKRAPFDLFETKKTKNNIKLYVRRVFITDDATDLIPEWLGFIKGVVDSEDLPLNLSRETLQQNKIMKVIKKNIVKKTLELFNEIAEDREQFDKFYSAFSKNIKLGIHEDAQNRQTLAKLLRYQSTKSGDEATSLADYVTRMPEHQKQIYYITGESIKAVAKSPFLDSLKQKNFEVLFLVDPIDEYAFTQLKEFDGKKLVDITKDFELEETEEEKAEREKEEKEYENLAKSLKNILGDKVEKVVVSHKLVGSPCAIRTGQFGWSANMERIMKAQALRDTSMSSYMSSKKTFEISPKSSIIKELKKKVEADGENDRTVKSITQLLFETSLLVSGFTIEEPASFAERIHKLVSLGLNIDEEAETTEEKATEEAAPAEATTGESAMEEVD
# Hsp90 Nuclear Binding Domain (NBD) (Candida albicans (strain SC5314 / ATCC MYA-2876) (Yeast), UniProt P46598), sequence (P46598 1-218 limits assumed): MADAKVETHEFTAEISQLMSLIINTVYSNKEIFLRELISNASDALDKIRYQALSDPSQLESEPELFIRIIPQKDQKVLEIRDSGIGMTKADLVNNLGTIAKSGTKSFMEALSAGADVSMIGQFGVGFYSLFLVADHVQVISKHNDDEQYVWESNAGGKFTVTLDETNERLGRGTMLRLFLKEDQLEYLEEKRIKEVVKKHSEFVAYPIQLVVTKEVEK
Compound,Kd [1] [nM],Kd [2] [nM],MIC50 (CaCl2) [µM]
"Nc1nc2sc(C(=O)NC3CCN(C[C@](O)(Cn4cncn4)c4ccc(F)cc4F)CC3)cc2n(-c2ccc3c(c2)N(c2ccccc2)CCO3)c1=O [Compound I-7, (S)-3-amino-N-(1-(2-(2,4-difluorophenyl)-2-hydroxy-3-(1H-1,2,4-triazol-1-yl)propyl)piperidin-4-yl)-2-oxo-1-(4-phenyl-3,4-dihydro-2H-benzo[b][1,4]oxazin-6-yl)-1,2-dihydrothieno[2,3-b]pyrazine-6-carboxamide]",22.8,76.4,0.75
"Nc1nc2sc(C(=O)Nc3ccc(N4CCN(CC(O)(Cn5cncn5)c5ccc(F)cc5F)CC4)cc3)cc2n(-c2ccc3c(c2)N(c2ccccc2)CCO3)c1=O (stereo not shown) [Compound I-8, 3-amino-N-(4-(4-(2-(2,4-difluorophenyl)-2-hydroxy-3-(1H-1,2,4-triazol-1-yl)propyl)piperazin-1-yl)phenyl)-2-oxo-1-(4-phenyl-3,4-dihydro-2H-benzo[b][1,4]oxazin-6-yl)-1,2-dihydrothieno[2,3-b]pyrazine-6-carboxamide]",–,–,0.75
"Nc1nc2sc(C(=O)Nc3ccc(CN4CCN(CC(O)(Cn5cncn5)c5ccc(F)cc5F)CC4)cc3)cc2n(-c2ccc3c(c2)N(c2ccccc2)CCO3)c1=O (stereo not shown) [Compound I-9, 3-amino-N-(4-((4-(2-(2,4-difluorophenyl)-2-hydroxy-3-(1H-1,2,4-triazol-1-yl)propyl)piperazin-1-yl)methyl)phenyl)-2-oxo-1-(4-phenyl-3,4-dihydro-2H-benzo[b][1,4]oxazin-6-yl)-1,2-dihydrothieno[2,3-b]pyrazine-6-carboxamide]",136,3870,10
"Nc1nc2sc(C(=O)NC3CCN(CC(O)(Cn4cncn4)c4ccc(F)cc4F)CC3)cc2n(-c2ccc3ccn(-c4ccccc4)c3c2)c1=O (stereo not shown) [Compound I-13, 3-amino-N-(1-(2-(2,4-difluorophenyl)-2-hydroxy-3-(1H-1,2,4-triazol-1-yl)propyl)piperidin-4-yl)-2-oxo-1-(1-phenyl-1H-indol-6-yl)-1,2-dihydrothieno[2,3-b]pyrazine-6-carboxamide]",50.4,75.1,0.37
"Nc1nc2sc(C(=O)N[C@H]3CCN(CC(O)(Cn4cncn4)c4ccc(F)cc4F)C3)cc2n(-c2ccc3c(c2)N(c2ccccc2)CCO3)c1=O (stereo partly drawn) [Compound I-14, 3-amino-N-((3S)-1-(2-(2,4-difluorophenyl)-2-hydroxy-3-(1H-1,2,4-triazol-1-yl)propyl)pyrrolidin-3-yl)-2-oxo-1-(4-phenyl-3,4-dihydro-2H-benzo[b][1,4]oxazin-6-yl)-1,2-dihydrothieno[2,3-b]pyrazine-6-carboxamide]",23.4,146,25
"Nc1nc2sc(C(=O)NCCN3CCN(CC(O)(Cn4cncn4)c4ccc(F)cc4F)CC3)cc2n(-c2ccc3c(c2)N(c2ccccc2)CCO3)c1=O (stereo not shown) [Compound I-15, 3-amino-N-(2-(4-(2-(2,4-difluorophenyl)-2-hydroxy-3-(1H-1,2,4-triazol-1-yl)propyl)piperazin-1-yl)ethyl)-2-oxo-1-(4-phenyl-3,4-dihydro-2H-benzo[b][1,4]oxazin-6-yl)-1,2-dihydrothieno[2,3-b]pyrazine-6-carboxamide]",30.4,188,2.75
"Nc1nc2sc(C(=O)NC3CCN(CC(O)(Cn4cncn4)c4ccc(F)cc4F)CC3)cc2n(-c2ccc3c(c2)N(c2ccccc2)CCC3)c1=O (stereo not shown) [Compound I-16, 3-amino-N-(1-(2-(2,4-difluorophenyl)-2-hydroxy-3-(1H-1,2,4-triazol-1-yl)propyl)piperidin-4-yl)-2-oxo-1-(1-phenyl-1,2,3,4-tetrahydroquinolin-7-yl)-1,2-dihydrothieno[2,3-b]pyrazine-6-carboxamide]",16,140,0.6
"Nc1nc2scc(C(=O)N[C@H]3CCN(CC(O)(Cn4cncn4)c4ccc(F)cc4F)C3)c2n(-c2ccc3c(c2)N(c2ccccc2)CCO3)c1=O (stereo partly drawn) [Compound I-17, 3-amino-N-((3S)-1-(2-(2,4-difluorophenyl)-2-hydroxy-3-(1H-1,2,4-triazol-1-yl)propyl)pyrrolidin-3-yl)-2-oxo-1-(4-phenyl-3,4-dihydro-2H-benzo[b][1,4]oxazin-6-yl)-1,2-dihydrothieno[2,3-b]pyrazine-7-carboxamide]",2670,2700,45
"Cc1ccc(-n2c(=O)c(N)nc3sc(C(=O)NC4CCN(C[C@](O)(Cn5cncn5)c5ccc(F)cc5F)CC4)cc32)cc1Oc1ccccc1 [Compound I-25, (S)-3-amino-N-(1-(2-(2,4-difluorophenyl)-2-hydroxy-3-(1H-1,2,4-triazol-1-yl)propyl)piperidin-4-yl)-1-(4-methyl-3-phenoxyphenyl)-2-oxo-1,2-dihydrothieno[2,3-b]pyrazine-6-carboxamide]",171,299,0.5
"Nc1nc2sc(C(=O)NC3CCN(CCC(O)(Cn4cncn4)c4ccc(F)cc4F)CC3)cc2n(-c2ccc3c(c2)N(c2ccccc2)CCO3)c1=O (stereo not shown) [Compound I-28, 3-amino-N-(1-(3-(2,4-difluorophenyl)-3-hydroxy-4-(1H-1,2,4-triazol-1-yl)butyl)piperidin-4-yl)-2-oxo-1-(4-phenyl-3,4-dihydro-2H-benzo[b][1,4]oxazin-6-yl)-1,2-dihydrothieno[2,3-b]pyrazine-6-carboxamide]",13.3,159,6
"Nc1nc2scc(C(=O)NC3CCN(C[C@](O)(Cn4cncn4)c4ccc(F)cc4F)CC3)c2n(-c2ccc3c(c2)N(c2ccccc2)CCO3)c1=O [Compound I-35, (S)-3-amino-N-(1-(2-(2,4-difluorophenyl)-2-hydroxy-3-(1H-1,2,4-triazol-1-yl)propyl)piperidin-4-yl)-2-oxo-1-(4-phenyl-3,4-dihydro-2H-benzo[b][1,4]oxazin-6-yl)-1,2-dihydrothieno[2,3-b]pyrazine-7-carboxamide]",1950,1840,25
"Nc1nc2sc(C(=O)Nc3ccc(COC4CCN(CC(O)(Cn5cncn5)c5ccc(F)cc5F)CC4)cc3)cc2n(-c2ccc3c(c2)N(c2ccccc2)CCO3)c1=O (stereo not shown) [Compound I-46, 3-amino-N-(4-(((1-(2-(2,4-difluorophenyl)-2-hydroxy-3-(1H-1,2,4-triazol-1-yl)propyl)piperidin-4-yl)oxy)methyl)phenyl)-2-oxo-1-(4-phenyl-3,4-dihydro-2H-benzo[b][1,4]oxazin-6-yl)-1,2-dihydrothieno[2,3-b]pyrazine-6-carboxamide]",–,–,0.85
"Nc1nc2sc(C(=O)NC3CCCN(CC(O)(Cn4cncn4)c4ccc(F)cc4F)CC3)cc2n(-c2ccc3c(c2)N(c2ccccc2)CCO3)c1=O (stereo not shown) [Compound I-50, 3-amino-N-(1-(2-(2,4-difluorophenyl)-2-hydroxy-3-(1H-1,2,4-triazol-1-yl)propyl)azepan-4-yl)-2-oxo-1-(4-phenyl-3,4-dihydro-2H-benzo[b][1,4]oxazin-6-yl)-1,2-dihydrothieno[2,3-b]pyrazine-6-carboxamide]",42.7,–,3.25
"Nc1nc2sc(-c3cn(C4CCN(CC(O)(Cn5cncn5)c5ccc(F)cc5F)CC4)nn3)cc2n(-c2ccc3c(c2)N(c2ccccc2)CCO3)c1=O (stereo not shown) [Compound I-51, 3-amino-6-(1-(1-(2-(2,4-difluorophenyl)-2-hydroxy-3-(1H-1,2,4-triazol-1-yl)propyl)piperidin-4-yl)-1H-1,2,3-triazol-4-yl)-1-(4-phenyl-3,4-dihydro-2H-benzo[b][1,4]oxazin-6-yl)thieno[2,3-b]pyrazin-2(1H)-one]",3,14.6,1
"Nc1nc2sc(CNC3[C@@H]4CC[C@H]3CN(CC(O)(Cn3cncn3)c3ccc(F)cc3F)C4)cc2n(-c2ccc3c(c2)N(c2ccccc2)CCO3)c1=O (stereo partly drawn) [Compound I-116, 3-amino-6-((((1R,5S)-3-(2-(2,4-difluorophenyl)-2-hydroxy-3-(1H-1,2,4-triazol-1-yl)propyl)-3-azabicyclo[3.2.1]octan-8-yl)amino)methyl)-1-(4-phenyl-3,4-dihydro-2H-benzo[b][1,4]oxazin-6-yl)thieno[2,3-b]pyrazin-2(1H)-one]",1350,–,3
"CN(Cc1cc2c(nc(N)c(=O)n2-c2ccc3c(c2)N(c2ccccc2)CCO3)s1)C1CCN(CC(O)(Cn2cncn2)c2ccc(F)cc2F)CC1 (stereo not shown) [Compound I-119, 3-amino-6-(((1-(2-(2,4-difluorophenyl)-2-hydroxy-3-(1H-1,2,4-triazol-1-yl)propyl)piperidin-4-yl)(methyl)amino)methyl)-1-(4-phenyl-3,4-dihydro-2H-benzo[b][1,4]oxazin-6-yl)thieno[2,3-b]pyrazin-2(1H)-one]",–,–,6.5
